Laboratory results reported in EP2527351B1, “Lipophosphonoxins, method of their preparation and use” (priority 2011, dated 2012).
≈ marks a conversion by molar mass, not a printed value.

Experiments:
S. aureus MRSA 4591 = assay: Microdilution MIC, resistant strain; details: methicilin-resistant strain, 24/48 hours at 37°C
Experimental: (§2) Antimicrobial activity is assessed using the standard microdilution method determining the minimum inhibitory concentration (MIC) of the tested samples leading to inhibition of bacterial growth. Disposable microtitration plates are used for the tests. The samples were diluted in brain heart infusion broth (Himedia, Laboraties Pvt. Ltd., ? eská republika) and Mueller-Hinton broth (HiMedia Laboraties, see above) to yield a concentration range between 200 µg/ml and 1.5625 µg/ml. The plates are inoculated with a standard amount of the tested microbe - the inoculum density in each well is equal to 10^5-6 CFU/ml. The MIC is read after 24/48 hours of incubation at 37°C as the minimum inhibitory concentration of the tested substance that inhibits the growth of the bacterial strains.
(§3) Standard reference bacterial strains (E. faecalis CCM 4224, S. aureus CCM 4223) from the Czech Collection of Microorganisms (CCM), Faculty of Science, Masaryk University Brno, S. agalactiae, B. subtilis, methicilin-resistant S. aureus 4591, fluoroquinolone-resistant S. haemolyticus 16568, vancomycin-resistant E. faecium VanA419/ana and methicilin-resistant S. epidermidis 8700/B strains obtained from the Teaching Hospital Olomouc were used. All tested microorganisms were stored in cryotubes (ITEST plus, Czech Republic) at -80°C. […]

S.agalactiae = assay: Microdilution MIC, reference strain; details: read after 24/48 hours at 37°C
Experimental: as §2
(§4) Standard reference bacterial strains (E. faecalis CCM 4224, S. aureus CCM 4223) from the Czech Collection of Microorganisms (CCM), Faculty of Science, Masaryk University Brno, S. agalactiae, B. subtilis, methicilin-resistant S. aureus 4591, fluoroquinolone-resistant S. haemolyticus 16568, vancomycin-resistant E. faecium VanA419/ana and methicilin-resistant S. epidermidis 8700/B strains obtained from the Teaching Hospital Olomouc were used. All tested microorganisms were stored in cryotubes (ITEST plus, Czech Republic) at -80°C.

E. faecium VanA 419/ana = assay: Microdilution MIC, resistant strain; details: vancomycin-resistant strain, 24/48 hours at 37°C
Experimental: as §2, §3

S. epidermidis 8700/B = assay: Microdilution MIC, resistant strain; details: methicilin-resistant strain, 24/48 hours at 37°C
Experimental: as §2, §3

E. faecalis CCM 4224 = assay: Microdilution MIC, reference strain; details: read after 24/48 hours at 37°C
Experimental: as §2, §4

[1] = tested on: normal human erythroid progenitor cells; assay: CytoTox-ONE Homogeneous Membrane Integrity Assay (LDH release); assay type: cell-based; details: cytotoxicity, CytoToxOne, after 4 hours
Experimental: Human immature erythroid progenitors isolated from umbilical cord blood are cultivated in the StemSpan serum-free medium (StemCell Technologies) in the presence of the stem cell factor (SCF, 100 ng/ml), erythropoetin (EPO, 33.34 nkat/ml) and dexamethasone (1 µmol.l^-1) (Panzenbock et al. 1998). Cells are plated at 25000 cells/well/20 µl in 384-well plates immediately before addition of lipophosphonoxine compound from particular examples. After 48 hours of incubation at 37 °C in 5% CO2 viability is determined by using the commercial CellTiter-Blue® Cell Viability Assay (Promega, Cat.# G8082). […] After an incubation step, data are recorded.
Cytotoxicity is determined after 4 hours at 37 °C in 5% CO2 using commercial CytoTox-ONE™ Homogeneous Membrane Integrity Assay (Promega, Cat.# G7892), a fluorometric method for estimating the number of non-viable cells present in multiwell plates. […] LDH released into the culture medium is measured with a 10-minute coupled enzymatic assay that results in the conversion of resazurin into a fluorescent resorufin product. The amount of fluorescence produced is proportional to the number of lysed cells.
(§1) The fluorescence intensity is measured using the EnVision plate reader (PerkinElmer). Data are analyzed using GraphPad Prism 5.0 statistical software.

[2] = tested on: normal erythroid progenitor cells; assay: CellTiter-Blue Cell Viability Assay; assay type: cell-based, Human; details: 48 hours of incubation
Experimental: Human immature erythroid progenitors isolated from umbilical cord blood are cultivated in the StemSpan serum-free medium (StemCell Technologies) in the presence of the stem cell factor (SCF, 100 ng/ml), erythropoetin (EPO, 33.34 nkat/ml) and dexamethasone (1 µmol.l^-1) (Panzenbock et al. 1998). Cells are plated at 25000 cells/well/20 µl in 384-well plates immediately before addition of lipophosphonoxine compound from particular examples. After 48 hours of incubation at 37 °C in 5% CO2 viability is determined by using the commercial CellTiter-Blue® Cell Viability Assay (Promega, Cat.# G8082). The assay is based on the ability of living cells to convert a redox dye (resazurin) into a fluorescent end product (resorufin). […] The homogeneous assay procedure involves adding the single reagent directly to cells cultured in serum-supplemented medium. After an incubation step, data are recorded.
as §1

S. haemolyticus 16568 = assay: Microdilution MIC, resistant strain; details: fluoroquinolone-resistant strain, 24/48 hours at 37°C
Experimental: as §2, §3

B. subtilis = assay: Microdilution MIC, reference strain; details: read after 24/48 hours at 37°C
Experimental: as §2, §4

cyst formation = details: cited from earlier work
[3] = tested on: Giardia trophozoite growth; details: cited from earlier work
mice = details: mouse, in vivo; cited from earlier work
[4] = tested on: Mycobacterium tuberculosis strains; details: drug-susceptible strains, in vitro; cited from earlier work

| Molecule | MIC S.agalactiae (S.agalactiae) | MIC E. faecium VanA 419/ana (E. faecium VanA 419/ana) | MIC S. epidermidis 8700/B (S. epidermidis 8700/B) | MIC E. faecalis CCM 4224 (E. faecalis CCM 4224) | IC50 [2] [µg/mL] | [Max. safety concentration] [2] [µg/mL] | MIC B. subtilis (B. subtilis) | also measured |
| --- | --- | --- | --- | --- | --- | --- | --- | --- |
| CCCCCCCCCCCCCCOP(=O)(CCN1C[C@@H](O)[C@H](O)C1)OC[C@H]1O[C@@H](n2ccc(=O)[nH]c2=O)[C@H](O)[C@@H]1O (stereo partly drawn) [Example 17, Tetradecyl uridin-5'-yl 2-([3R,4R]-3,4-dihydroxypyrrolidin-l-N-yl)ethylphosphonate] | 6,25 µg/ml | 12,5 µg/ml | 12,5 µg/ml | 12,5 µg/ml | 47 (≈ 74.2 µM) | 31 | 6,25 µg/ml | MIC S. aureus MRSA 4591 (S. aureus MRSA 4591): 25 µg/mL (≈ 39.4 µM); EC50 [1]: 302 µg/mL (≈ 477 µM); [Max. safety concentration] [1]: 125 µg/mL; MIC S. haemolyticus 16568 (S. haemolyticus 16568): 12,5 µg/ml |
| O=c1ccn([C@@H]2O[C@H](COP(=O)(O)CCN3C[C@@H](O)[C@H](O)C3)[C@@H](O)[C@H]2O)c(=O)[nH]1 [phosphonoxin] | – | – | – | – | – | – | – | cyst formation (cyst formation): did not specifically inhibit; vegetative growth [3]: potently inhibited |
| Hexadecyloxypropyl uridin-5'-yl 2-([3R,4S,5S]-3,4-trihydroxypiperidin-1-N-yl)ethyl-phosphonate [Example 12] | 12,5 µg/ml | – | – | – | 141 | 62 | – | – |
| Hexadecyloxypropyl uridin-5'-yl 2-([3R,5R]-3,4-dihydroxypiperidin-1-N-yl)ethyl-phosphonate [Example 11] | 6,25 µg/ml | 6,25 µg/ml | 6,25 µg/ml | 12,5 µg/ml | 40 | 31 | 6,25 µg/ml | – |
| Hexadecyloxypropyl uridin-5'-yl 2-([3R,5R]-3,4-dihydroxypiperidin-1-N-yl)ethylphosphonate [Example 13] | 6,25 µg/ml | – | – | – | 45 | 15 | – | – |
| caprazamycins [CPZs] | – | – | – | – | – | – | – | toxicity in mice (mice): no significant toxicity; MIC [4]: 3.13 µg/mL |
